# Test results: patent EP0509845A1, “(+) and (-) enantiomers of 5-aliphatic-6-(benzoxazinyl- or benzothiazinyl)-2,3,4,5-tetrahydropyridazin-3-ones” (ORTHO PHARMACEUTICAL CORPORATION, priority 1991, dated 1992)
# Like-named read-outs stand apart in the source and are kept apart here.
# Tested on: human platelet aggregation
# Assay: Platelet aggregation in vitro in platelet rich plasma
# Type: cell-based
# Settings: for IC50: human PRP
# Description: The racemate and enantiomeric Bemoradan were tested for their effects in vitro on human platelet aggregation. Platelet rich plasma (PRP) was prepared from human donors who were free of aspirin for the preceding week. Venous blood was collected in sodium citrate vacutainer tubes and PRP was obtained by centrifuging the blood at l000 rpm for 5 min. Compounds were dissolved in methanol and added to 480 µl of PRP in a Chrono-log dual channel aggregometer l min prior to aggregant. Serotonin at 5 µM or ADP at 2 µM were the aggregating agents.
# [1] = ADP at 2 µM, read-out: Antiaggregatory IC50 (µM) vs. ADP
# [2] = Serotonin at 5 µM, read-out: Antiaggregatory IC50 (µM) vs. 5-HT
# [3] = Table I summary, ADP at 2 µM as aggregant, read-out: Platelet aggregation (IC50) vs. ADP
# [4] = Table I summary, serotonin at 5 µM as aggregant, read-out: Platelet aggregation (IC50) vs. 5-HT (serotonin)
IC50 [1],IC50 [2],IC50 [3],IC50 [4],"Potency Difference (-vs+), Platelet aggregation (IC50) vs. 5-HT (serotonin) ((-) isomer versus (+) isomer)","Potency Difference (-vs+), Platelet aggregation (IC50) vs. ADP ((-) isomer versus (+) isomer)",Compound
3.8 µM,8 µM,3.8 µM,8 µM,,,"CC1CC(=O)NN=C1c1ccc2c(c1)OCC(=O)N2 (single isomer, unassigned; isomer 6) [(+) isomer, 6-(3,4-dihydro-3-oxo-l,4(2H)-benzoxazin-7-yl)-2,3,4,5-tetrahydro-5-methyl-pyridazin-3-one]"
0.32 µM,0.5 µM,0.32 µM,0.5 µM,16x,12x,"CC1CC(=O)NN=C1c1ccc2c(c1)OCC(=O)N2 (single isomer, unassigned; isomer 6) [(-) isomer, 6-(3,4-dihydro-3-oxo-l,4(2H)-benzoxazin-7-yl)-2,3,4,5-tetrahydro-5-methyl-pyridazin-3-one]"
